For 38 compounds, IC50 results are on record in patent US20110071150A1 (priority 2009, published 2011).

This assay has as its system Jurkat IL-2 Production. Nature of the assay: Jurkat IL-2 Production Assay. Type of assay: cell-based. To be noted: Homo sapiens, Jurkat cell (ATCC), 18-20 h incubation, PHA 5 μg/mL with 1% FBS, or PMA/Ionomycin with 30% FBS (table does not say which). As to the method:
Jurkat IL-2 Production Assay
Cell: Jurkat cell (ATCC) was grown in RPMI 1640 with 10% FBS and 1% penicillin/streptomycin. The cell density was kept at 1.2-1.8×10^6/mL in culture flask before seeding into culture plate, and the cell density in the plate was 0.5×10^6/[…]/well.
Culture media: RPMI 1640 with 1% FBS or 30% FBS for high serum assay.
Test compound: serial dilution was done in 100% DMSO, and intermediate dilution was done with RPMI 1640 medium with 1% FBS. The DMSO final concentration in culture well was 0.25%.
Stimulant: PHA (Sigma#L9017-10MG) was used for the assay with 1% FBS in culture medium, and added after 10 minutes exposure of cell to compound/DMSO. The PHA final concentration in culture well was 5 μg/mL. PMA (Sigma# P-8139 5MG)/Ionomycin (Sigma# 10634-5MG) was used for the assay with 30% FBS in culture medium, and added at same time point as the 1% FBS culture assay. The final concentration of PMA was 50 ng/mL, and Ionomycin final concentration was 500 ng/mL.
Incubation: at 37° C. with 5% CO2 and 95% humidity for 18 h˜20 h.
IC50: IC50 was calculated with the data analysis software XLfit4, General Pharmacology model 251.

Each structure is given as a SMILES string.

Broadly, the IC50 is the concentration at which inhibition is half-maximal. Lower therefore signals greater potency in that assay. In the case of `Cn1nc(C(F)(F)F)cc1-c1ccc2[nH]c(-c3c(F)cccc3F)cc2c1` [Example 1, 2-(2,6-Difluoro-phenyl)-5-(2-methyl-5-trifluoromethyl-2H-pyrazol-3-yl)-1H-indole], the IC50 stood at 46 nM.
The figure for `COc1ccc2c(c1)nc(C(F)(F)F)n2-c1ccc2[nH]c(-c3c(F)cccc3F)cc2c1` [Example 2, 1-[2-(2,6-Difluoro-phenyl)-1H-indol-5-yl]-5-methoxy-2-trifluoromethyl-1H-benzoimidazole] is 830 nM.
To `Cn1nc(C(F)(F)F)cc1-c1ccc2[nH]c(-c3ccc(OC(F)(F)F)cc3)cc2c1` [Example 3, 5-(2-Methyl-5-trifluoromethyl-2H-pyrazol-3-yl)-2-(4-trifluoromethoxy-phenyl)-1H-indole] belongs 954 nM; to `Cc1sc(-c2ccccn2)nc1-c1ccc2[nH]c(-c3c(F)cccc3F)cc2c1` [Example 4, 2-(2,6-Difluoro-phenyl)-5-(5-methyl-2-pyridin-2-yl-thiazol-4-yl)-1H-indole], 219 nM; to `Cc1sc(-c2ccccn2)nc1-c1ccc2[nH]c(-c3ccccc3Cl)cc2c1` [Example 5, 2-(2-Chloro-phenyl)-5-(5-methyl-2-pyridin-2-yl-thiazol-4-yl)-1H-indole], 223 nM.
The figure for `Cc1ccccc1-c1cc2cc(-c3nc(-c4ccccn4)sc3C)ccc2[nH]1` [Example 6, 5-(5-Methyl-2-pyridin-2-yl-thiazol-4-yl)-2-o-tolyl-1H-indole] is 611 nM.
For the compound `Cc1nc(-c2ccccc2)sc1-c1ccc2[nH]c(-c3ccccc3Cl)cc2c1` [Example 7, 2-(2-Chloro-phenyl)-5-(4-methyl-2-phenyl-thiazol-5-yl)-1H-indole], the IC50 is 800 nM.
The figure for `Cc1ncccc1-c1cc2cc(-c3sc(-c4ccccc4)nc3C)ccc2[nH]1` [Example 8, 5-(4-Methyl-2-phenyl-thiazol-5-yl)-2-(2-methyl-pyridin-3-yl)-1H-indole] is 287 nM; for `Cc1sc(-c2ccccn2)nc1-c1ccc2[nH]c(-c3ccncc3F)cc2c1` [Example 9, 2-(3-Fluoro-pyridin-4-yl)-5-(5-methyl-2-pyridin-2-yl-thiazol-4-yl)-1H-indole] it is 908 nM.
The figure for `Cc1cnccc1-c1cc2cc(-c3nc(-c4ccccn4)sc3C)ccc2[nH]1` [Example 10, 2-(3-Methyl-pyridin-4-yl)-5-(5-methyl-2-pyridin-2-yl-thiazol-4-yl)-1H-indole] is 190 nM.
Compound `Cc1sc(-c2cccnc2)nc1-c1ccc2[nH]c(-c3ccccc3F)cc2c1` [Example 11, 2-(2-Fluoro-phenyl)-5-(5-methyl-2-pyridin-3-yl-thiazol-4-yl)-1H-indole] displayed an IC50 of 169 nM.
Take `Cc1sc(-c2cccnc2)nc1-c1ccc2[nH]c(-c3ccccc3Cl)cc2c1` [Example 12, 2-(2-Chloro-phenyl)-5-(5-methyl-2-pyridin-3-yl-thiazol-4-yl)-1H-indole]: half-maximal inhibition (IC50) was put at 86 nM.
The figure for `Cc1sc(-c2cccnc2)nc1-c1ccc2[nH]c(-c3c(F)cccc3F)cc2c1` [Example 13, 2-(2,6-Difluoro-phenyl)-5-(5-methyl-2-pyridin-3-yl-thiazol-4-yl)-1H-indole] is 66 nM; for `Cn1nc(C(F)(F)F)cc1-c1ccc2[nH]c(-c3ccccc3F)cc2c1` [Example 14, 2-(2-Fluoro-phenyl)-5-(2-methyl-5-trifluoromethyl-2H-pyrazol-3-yl)-1H-indole] it is 337 nM.
Consider `CCn1nc(-c2ccccc2)cc1-c1ccc2[nH]c(-c3c(F)cccc3F)cc2c1` [Example 15, 2-(2,6-difluoro-phenyl)-5-(2-ethyl-5-phenyl-2H-pyrazol-3-yl)-1H-indole], for which half-maximal inhibition (IC50) was put at 468 nM.
The figure for `CCn1nc(-c2ccccn2)cc1-c1ccc2[nH]c(-c3c(F)cccc3F)cc2c1` [Example 16, 2-(2,6-Difluoro-phenyl)-5-(2-ethyl-5-pyridin-2-yl-2H-pyrazol-3-yl)-1H-indole] is 211 nM; for `Cn1nc(-c2ccncc2)cc1-c1ccc2[nH]c(-c3c(F)cccc3F)cc2c1` [Example 17, 2-(2,6-Difluoro-phenyl)-5-(2-methyl-5-pyridin-4-yl-2H-pyrazol-3-yl)-1H-indole] it is 57 nM; for `CCn1nc(-c2ccncc2)cc1-c1ccc2[nH]c(-c3c(F)cccc3F)cc2c1` [Example 18, 2-(2,6-Difluoro-phenyl)-5-(2-ethyl-5-pyridin-4-yl-2H-pyrazol-3-yl)-1H-indole] it is 102 nM.
To `Cn1nc(-c2cccnc2)cc1-c1ccc2[nH]c(-c3c(F)cccc3F)cc2c1` [Example 19, 2-(2,6-Difluoro-phenyl)-5-(2-methyl-5-pyridin-3-yl-2H-pyrazol-3-yl)-1H-indole] belongs 198 nM; to `CCn1nc(-c2cccnc2)cc1-c1ccc2[nH]c(-c3c(F)cccc3F)cc2c1` [Example 20, 2-(2,6-Difluoro-phenyl)-5-(2-ethyl-5-pyridin-3-yl-2H-pyrazol-3-yl)-1H-indole], 101 nM.
To `Cc1sc(-c2ccncc2)nc1-c1ccc2[nH]c(-c3c(F)cccc3F)cc2c1` [Example 21, 2-(2,6-Difluoro-phenyl)-5-(5-methyl-2-pyridin-4-yl-thiazol-4-yl)-1H-indole] belongs 90 nM; to `Cc1sc(-c2ccncc2)nc1-c1ccc2[nH]c(-c3ccccc3Cl)cc2c1` [Example 22, 2-(2-Chloro-phenyl)-5-(5-methyl-2-pyridin-4-yl-thiazol-4-yl)-1H-indole], 150 nM; to `Cc1ccc(-c2ncco2)cc1-c1ccc2[nH]c(-c3c(F)cccc3F)cc2c1` [Example 23, 2-(2,6-Difluoro-phenyl)-5-(2-methyl-5-oxazol-2-yl-phenyl)-1H-indole], 210 nM.
Compound `Fc1cccc(F)c1-c1cc2cc(-c3cccc(-c4ncco4)c3)ccc2[nH]1` [Example 24, 2-(2,6-Difluoro-phenyl)-5-(3-oxazol-2-yl-phenyl)-1H-indole] returned an IC50 of 427 nM.
To `Cc1ccc(-c2nccs2)cc1-c1ccc2[nH]c(-c3c(F)cccc3F)cc2c1` [Example 25, 2-(2,6-Difluoro-phenyl)-5-(2-methyl-5-thiazol-2-yl-phenyl)-1H-indole] belongs 224 nM.
The figure for `COc1ccc(OC)c(-c2ccc3[nH]c(-c4c(F)cccc4F)cc3c2)c1` [Example 26, 2-(2,6-Difluoro-phenyl)-5-(2,5-dimethoxy-phenyl)-1H-indole] is 639 nM; for `Cc1cc(C#N)ccc1-c1ccc2[nH]c(-c3c(F)cccc3F)cc2c1` [Example 27, 4-[2-(2,6-Difluoro-phenyl)-1H-indol-5-yl]-3-methyl-benzonitrile] it is 97 nM.
`COc1ccc(-c2ccc3[nH]c(-c4c(F)cccc4F)cc3c2)c(C)c1` [Example 28, 2-(2,6-Difluoro-phenyl)-5-(4-methoxy-2-methyl-phenyl)-1H-indole] gave an IC50 of 123 nM.
The compound `Cc1ccc(-c2ccc3[nH]c(-c4c(F)cccc4F)cc3c2)c(C)c1` [Example 29, 2-(2,6-Difluoro-phenyl)-5-(2,4-dimethyl-phenyl)-1H-indole] showed an IC50 of 168 nM.
`COC(=O)c1ccc(-c2ccc3[nH]c(-c4c(F)cccc4F)cc3c2)c(C)c1` [Example 30] registered an IC50 of 85 nM.
To `Cc1cc(Cl)ccc1-c1ccc2[nH]c(-c3c(F)cccc3F)cc2c1` [Example 31, 5-(4-Chloro-2-methyl-phenyl)-2-(2,6-difluoro-phenyl)-1H-indole] belongs 174 nM; to `Cc1cc(C(F)(F)F)ccc1-c1ccc2[nH]c(-c3c(F)cccc3F)cc2c1` [Example 32, 2-(2,6-Difluoro-phenyl)-5-(2-methyl-4-trifluoromethyl-phenyl)-1H-indole], 71 nM; to `Cn1nc(C(F)(F)F)cc1-c1ccc2[nH]c(-c3cc(Cl)ccc3F)cc2c1` [Example 33, 2-(5-Chloro-2-fluoro-phenyl)-5-(2-methyl-5-trifluoromethyl-2H-pyrazol-3-yl)-1H-indole], 741 nM.
To `Cn1nc(C(F)(F)F)cc1-c1ccc2[nH]c(-c3ccc(Cl)cc3Cl)cc2c1` [Example 34, 2-(2,4-Dichloro-phenyl)-5-(2-methyl-5-trifluoromethyl-2H-pyrazol-3-yl)-1H-indole] belongs 184 nM; to `Cn1nc(C(F)(F)F)cc1-c1ccc2[nH]c(-c3ccc(F)cc3Cl)cc2c1` [Example 35, 2-(2-Chloro-4-fluoro-phenyl)-5-(2-methyl-5-trifluoromethyl-2H-pyrazol-3-yl)-1H-indole], 116 nM; to `Cn1nc(C(F)(F)F)cc1-c1ccc2[nH]c(-c3ccncc3Cl)cc2c1` [Example 36, 2-(3-Chloro-pyridin-4-yl)-5-(2-methyl-5-trifluoromethyl-2H-pyrazol-3-yl)-1H-indole], 131 nM.
The compound `Cc1cnccc1-c1cc2cc(-c3cc(C(F)(F)F)nn3C)ccc2[nH]1` [Example 37, 2-(3-Methyl-pyridin-4-yl)-5-(2-methyl-5-trifluoromethyl-2H-pyrazol-3-yl)-1H-indole] gave an IC50 of 120 nM.
On to `COc1ccc(-c2cc3cc(-c4cc(C(F)(F)F)nn4C)ccc3[nH]2)c(C)n1` [Example 38, 2-(6-Methoxy-2-methyl-pyridin-3-yl)-5-(2-methyl-5-trifluoromethyl-2H-pyrazol-3-yl)-1H-indole], for which the IC50 came out at 83 nM.
